≈ marks a conversion by molar mass, not a printed value. Read-outs that look alike come from different tables or passages of the source.
Columns and labels:
[1] = Oral administration to rats, plasma pharmacokinetics; format: in vivo; conditions: rat, suspension in tween 80, methylcellulose and water
Experimental: Rats: […] Three rats were administered with each dose vehicle. […] Plasma concentrations of the pharmaceutical were determined as previously described in the dog and the same pharmacokinetic parameters were determined.

[2] = Solubility in water and oil; format: physicochemical
HIV protease = HIV protease (Human immunodeficiency virus type 1 group M subtype B, UniProt P04585); assay: IC50 and IC90 pharmaceutical plasma levels
[3] = Bioavailability measured in animals; format: in vivo

SMILES: CC(C)CN(C[C@@H](O)[C@H](Cc1ccccc1)NC(=O)[C@H](CC(N)=O)NC(=O)c1ccc2ccccc2n1)C(=O)NC(C)(C)C [Example 1, N^1-[3-[N^2-[[(1,1-dimethylethyl)amino]carbonyl]-N^2-(2-methylpropyl)amino]-2(R)-hydroxy-1(S)-(phenylmethyl)propyl]-2(S)-[N^3-(2-quinolinylcarbonyl)amino]butanediamide]
- bioavailability [1]: ~1%
- dose to solubility ratio [2]: > 75,000
- solubility ([2]; oil, oil or lipid, read-out: solubility in oil): < 1000 µg/mL
- solubility ([2]; water, read-out: solubility in water): ~10 µg/mL (≈ 16.5 µM)
- IC50 (HIV protease): 16.5 nM
- IC90 (HIV protease): 0.1 µg/mL (≈ 0.165 µM)
- bioavailability ([3]; in vivo, normal formulation methods, read-out: bioavailability): < 1%
- bioavailability ([3]; measured in animals, without solubilizer): very low
- increase of bioavailability ([3]; utilizing a solubilizer in the dosage formulation): 25–30 fold
- melting point: 107 to 109.8 °C

Reference: patent US7226932B2, “Self-emulsifying drug delivery system” (priority 1994, dated 2007)
